The source of these data is patent publication US7015228B2, “4-amino-2-(2-pyridyl)pyrimidines as microbicidal active substances” (Ciba Specialty Chemicals Corporation, priority 2001, dated 2006).

SMILES strings stand for the structures. ≈ marks a conversion by molar mass, not a printed value.

What all share (type): cell-based
For assay [1], the system named is Epidermophyton floccosum DSM 10709. The experiment in a line: Minimum inhibitory concentration (MIC), further microorganisms. To be noted: Table 8; * = significant inhibition of growth, but not complete inhibition. Summed up: (§1)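 Organisms at 1–5×10^6 CFU/ml were diluted 1:100 into CASO broth (bacteria, yeast) or Sabouraud 2% glucose broth (mould) over 1:2 DMSO dilution series of compound. Bacteria and yeast were incubated 48 h at 37 °C and mould 5 days at 28 °C. MIC is the lowest concentration giving ≤20% growth versus control by OD620, in duplicate.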

In assay [2] the test system is Pseudomonas aeruginosa CIP A-22. Described as above. To be noted: Table 8. The procedure, abridged:
as §1

Assay [3] has as its system Trichophyton mentagrophytes ATCC 9533. The assay is described as above. To be noted: Table 8; * = significant inhibition of growth, but not complete inhibition. Summed up:
as §1

Assay [4] has as its system Salmonella choleraesuis ATCC 10708. The description is as above. The conditions noted are these: Table 8. Summed up:
as §1

The subject of assay [5] is Enterococcus hirae ATCC 10541. Described as above. To be noted: Table 8; * = significant inhibition of growth, but not complete inhibition. The procedure, abridged:
as §1

Assay [6] relates to S. epidermidis ATCC 12228. The assay is described as above. To be noted: Table 8; * = significant inhibition of growth, but not complete inhibition. Summed up:
as §1

The subject of assay [7] is Klebsiella pneumonia ATCC 4352. The assay is described as above. To be noted: Table 8; * = significant inhibition of growth, but not complete inhibition. The procedure, abridged: as §1
The test system of assay [8] is Aspergillus niger ATCC 6275. The assay is described as above. The conditions noted are these: Table 8; * = significant inhibition of growth, but not complete inhibition. The procedure, abridged: as §1
For assay [9], the system named is Micrococcus luteus ATCC 9341. The assay is described as above. To be noted: Table 8; * = significant inhibition of growth, but not complete inhibition. The procedure, abridged:
as §1

For assay [10], the system named is Candida albicans ATCC 10231. The assay is described as above. To be noted: Table 8; * = significant inhibition of growth, but not complete inhibition. Summed up: as §1
Assay [11] has as its system Staphylococcus aureus ATCC 9144. Described as above. The conditions noted are these: Table 8; * = significant inhibition of growth, but not complete inhibition. Summed up: as §1
For assay [12], the system named is Escherichia coli NCTC 8196. Briefly: Minimum inhibitory concentration (MIC) in microtitre plates. Summed up:
(§2)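 Compounds in DMSO, 1:2 dilution series; bacteria at 1–5×10^6 CFU/ml diluted 1:100 in CASO broth. Incubation 48 h at 37° C, growth read as OD 620 nm. MIC is the lowest concentration giving ≤20% growth relative to control; duplicates.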

Assay [13] relates to Staphylococcus hominis DMS 20328. Described as above. To be noted: Table 7; 48 hours at 37° C.; MIC = ≦20% growth compared to control. The procedure, abridged:
as §2

For `COCCc1cc(NCCCCCCCCCCCCN)nc(-c2ccccn2)n1` [compound 79], in assay [1], the “Minimum inhibitory concentration (MIC) Epidermophyton floccosum DSM 10709” value was over 60 µg/mL. The “Minimum inhibitory concentration (MIC) Pseudomonas aeruginosa CIP A-22” value in assay [2] was over 60 µg/mL. For the same compound, the “Minimum inhibitory concentration (MIC) Trichophyton mentagrophytes ATCC 9533” value in [3] was over 60 µg/mL. Also, in assay [4], the “Minimum inhibitory concentration (MIC) Salmonella choleraesuis ATCC 10708” value was over 60 µg/mL. Also, the “Minimum inhibitory concentration (MIC) Enterococcus hirae ATCC 10541” value in [5] was over 60 µg/mL. Further, the “Minimum inhibitory concentration (MIC) S. epidermidis ATCC 12228” value in assay [6] is 30 µg/mL (≈ 72.5 µM). Also, the “Minimum inhibitory concentration (MIC) Klebsiella pneumonia ATCC 4352” value in [7] is over 60 µg/mL. Besides, the “Minimum inhibitory concentration (MIC) Aspergillus niger ATCC 6275” value in [8] is over 60 µg/mL. In addition, in [9], the “Minimum inhibitory concentration (MIC) Micrococcus luteus ATCC 9341” value is 60 µg/mL (≈ 145 µM). Moreover, the “Minimum inhibitory concentration (MIC) Candida albicans ATCC 10231” value in assay [10] is listed as “*30 μg/mL”. In addition, in assay [11], the “Minimum inhibitory concentration (MIC) Staphylococcus aureus ATCC 9144” value is “*60 μg/mL”. The “Minimum inhibitory concentration (MIC) E. coli” value in assay [12] (Table 7, 48 hours at 37° C., MIC = ≦20% growth compared to control) stood at 20 µg/mL (≈ 48.4 µM). Further, the “Minimum inhibitory concentration (MIC) E. coli NCTC 8196” value in assay [12] (Table 8, * = significant inhibition of growth, but not complete inhibition) came out at 60 µg/mL (≈ 145 µM). Also, the “Minimum inhibitory concentration (MIC) S. hominis” value in assay [13] stood at 10 µg/mL (≈ 24.2 µM).
